These results are taken from PubChem BioAssay AID248 (DTP/NCI, 2004).

Structures are written as SMILES. Several values for one entry are separate records, joined by “and”; a condition that tells them apart may be missing. Identical values can stand only once. Toxic doses and inconclusive results are not listed.

For this test, the system named is L1210 leukemia ip in BDF1 mice, survival T/C. In words: NCI In Vivo Anticancer Drug Screen. Data for tumor model L1210 Leukemia (intraperitoneal) in B6D2F1 (BDF1) mice. The note with it: endpoint: mean survival time, higher = longer survival. An outline of the steps:
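Tumor was transplanted into mice, which were then dosed with test compound or vehicle alone. Survival was recorded for each group, and the treated figure was expressed relative to the control figure.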

Setting [1] is: dose: 50.0 mg/kg/injection, schedule: Q04DX002 (ip), vehicle: Klucel (hydroxypropylcellulose) (HPC).
Where [2] appears, read: dose: 100.0 mg/kg/injection, schedule: Q04DX002 (ip), vehicle: Klucel (hydroxypropylcellulose) (HPC).
Setting [3] is: dose: 200.0 mg/kg/injection, schedule: Q04DX002 (ip), vehicle: Klucel (hydroxypropylcellulose) (HPC).
Setting [4] is: dose: 100.0 mg/kg/injection, schedule: Q04DX003 (ip), vehicle: saline with Tween-80.
[5] abbreviates: dose: 200.0 mg/kg/injection, schedule: Q04DX003 (ip), vehicle: saline with Tween-80.
Setting [6] is: dose: 400.0 mg/kg/injection, schedule: Q04DX003 (ip), vehicle: saline with Tween-80.
[7] abbreviates: dose: 50.0 mg/kg/injection, schedule: Q01DX009 (ip), vehicle: Klucel (hydroxypropylcellulose) (HPC).
Setting [8] is: dose: 100.0 mg/kg/injection, schedule: Q01DX009 (ip), vehicle: Klucel (hydroxypropylcellulose) (HPC).
The mark [9] stands for this setting: dose: 100.0 mg/kg/injection, schedule: Q04DX003 (ip), vehicle: Klucel (hydroxypropylcellulose) (HPC).
[10] abbreviates: dose: 200.0 mg/kg/injection, schedule: Q01DX009 (ip), vehicle: Klucel (hydroxypropylcellulose) (HPC).
Where [11] appears, read: dose: 200.0 mg/kg/injection, schedule: Q04DX003 (ip), vehicle: Klucel (hydroxypropylcellulose) (HPC).
[12] abbreviates: dose: 100.0 mg/kg/injection, schedule: Q04DX003 (ip), vehicle: saline.
Where [13] appears, read: dose: 200.0 mg/kg/injection, schedule: Q04DX003 (ip), vehicle: saline.
[14] abbreviates: dose: 400.0 mg/kg/injection, schedule: Q04DX003 (ip), vehicle: saline.
The mark [15] stands for this setting: dose: 100.0 mg/kg/injection, schedule: Q04DX003 (ip), vehicle: acetone.
Setting [16] is: dose: 200.0 mg/kg/injection, schedule: Q04DX003 (ip), vehicle: acetone.
The mark [17] stands for this setting: dose: 400.0 mg/kg/injection, schedule: Q04DX003 (ip), vehicle: acetone.
Where [18] appears, read: dose: 25.0 mg/kg/injection, schedule: Q01DX009 (ip), vehicle: Klucel (hydroxypropylcellulose) (HPC).
[19] abbreviates: dose: 400.0 mg/kg/injection, schedule: Q04DX003 (ip), vehicle: Klucel (hydroxypropylcellulose) (HPC).
Where [20] appears, read: dose: 400.0 mg/kg/injection, schedule: Q01DX009 (ip), vehicle: Klucel (hydroxypropylcellulose) (HPC).

For `O=C(O)c1cc(=O)c2cccc(Cl)c2[nH]1`, the T/C by setting is: under setting [1], 103 % of control; under setting [2], 100 % of control; under setting [3], 96 % of control.

As for `C#CC1(OCC2CN(c3ccccc3)C(=O)O2)CCCCC1` (centres undefined), the T/C (dose: 100.0 mg/kg/injection, schedule: Q01DX009 (ip), vehicle: saline with Tween-80) is 106 % of control; the T/C under setting [4] is 97 % of control; the T/C (dose: 200.0 mg/kg/injection, schedule: Q01DX009 (ip), vehicle: saline with Tween-80) was 108 % of control; the T/C under setting [5] was 105 % of control; the T/C (dose: 400.0 mg/kg/injection, schedule: Q01DX009 (ip), vehicle: saline with Tween-80) was 108 % of control; the T/C under setting [6] is 92 % of control.

Turning to `C=CCc1ccccc1NC(=O)NCCCl`, the T/C reads like this: under setting [7], 106 % of control; under setting [8], 100 % of control; under setting [9], 93 % of control; under setting [10], 111 % of control; under setting [11], 104 % of control.

Take `CCP(=O)(CC)OCCCCOP(=O)(CC)CC`: the T/C is 104 % of control (dose: 75.0 mg/kg/injection, schedule: Q01DX Z (ip), vehicle: saline) and 98 % of control (dose: 100.0 mg/kg/injection, schedule: Q01DX Z (ip), vehicle: saline).

For the compound `O=C1Cc2cccc(=O)c(O)c2C(=O)O1`, the T/C (dose: 25.0 mg/kg/injection, schedule: Q01DX009 (ip), vehicle: saline) is 97 % of control and 90 % of control; the T/C (dose: 50.0 mg/kg/injection, schedule: Q01DX009 (ip), vehicle: saline) is 97 % of control and 92 % of control; the T/C (dose: 100.0 mg/kg/injection, schedule: Q01DX009 (ip), vehicle: saline) is 96 % of control and 89 % of control; the T/C under setting [12] is 111 % of control and 100 % of control; the T/C under setting [13] is 97 % of control; the T/C under setting [14] was 89 % of control.

As to `CN(C)c1ccc(/C=N/NC(=O)C2CCCO2)c(Cl)c1` (centres undefined), the T/C was 102 % of control under setting [8] and 98 % of control under setting [10].

Turning to `NC(Cc1c[nH]c2cc(N(CCCl)CCCl)ccc12)C(=O)O` (centres undefined), the T/C reads like this: (dose: 0.25 mg/kg/injection, schedule: Q01DX Z (ip), vehicle: other) 171 % of control; (dose: 0.5 mg/kg/injection, schedule: Q01DX Z (ip), vehicle: other) 188 % of control; (dose: 125.0 micrograms/kg/injection, schedule: Q01DX009 (ip), vehicle: carboxymethylcellulose (CMC)) 118 % of control; (dose: 500.0 micrograms/kg/injection, schedule: Q01DX009 (ip), vehicle: carboxymethylcellulose (CMC)) 167 % of control; (dose: 1000.0 micrograms/kg/injection, schedule: Q01DX009 (ip), vehicle: carboxymethylcellulose (CMC)) 229 % of control.

For `O=C(O)c1nnn(Cc2ccccc2)n1`, the T/C was 94 % of control under setting [15], 96 % of control under setting [16] and 96 % of control under setting [17].

With `C[C@]12CC[C@@H]3c4cc([N+]#N)c([O-])cc4CC[C@H]3[C@@H]1CCC2=O`, the T/C was 103 % of control under setting [18]; 96 % of control (dose: 25.0 mg/kg/injection, schedule: Q04DX002 (ip), vehicle: Klucel (hydroxypropylcellulose) (HPC)); 92 % of control under setting [7]; 122 % of control under setting [1]; 100 % of control and 101 % of control under setting [2].

On to `c1ccc(-c2nc3cnccc3o2)cc1`, for which the T/C is, setting by setting: (dose: 12.5 mg/kg/injection, schedule: Q01DX009 (ip), vehicle: Klucel (hydroxypropylcellulose) (HPC)) 92 % of control; under setting [18], 94 % of control; under setting [7], 94 % of control; under setting [9], 106 % of control; under setting [11], 99 % of control; under setting [19], 94 % of control.

On to `S=C(S)Nc1ccc(Cc2ccc(NC(=S)S)cc2)cc1`, for which the T/C is, setting by setting: under setting [4], 95 % of control; under setting [5], 91 % of control; under setting [6], 98 % of control.

As to `CCN(CC)c1ccc(N=C2C=C(C(=O)Nc3ccccc3OC)C(=O)c3ccccc32)c(C)c1`, the T/C is 102 % of control (dose: 100.0 mg/kg/injection, schedule: Q01DX001 (ip), vehicle: saline); 105 % of control (dose: 200.0 mg/kg/injection, schedule: Q01DX001 (ip), vehicle: saline); 96 % of control (dose: 400.0 mg/kg/injection, schedule: Q01DX001 (ip), vehicle: saline).

As for `O/N=C1/CCCC/C1=C/c1ccccc1`, the T/C under setting [4] was 101 % of control, the T/C under setting [5] is 97 % of control and the T/C under setting [6] is 100 % of control.

Consider `O=C1OC(c2ccc3c(c2)OCO3)C(C(=O)CCl)c2ccccc21` (centres undefined), for which the T/C under setting [4] was 97 % of control and the T/C under setting [5] is 93 % of control.

Take `Cc1no[n+]([O-])c1C(=O)O`: the T/C reads like this: under setting [2], 95 % of control; under setting [3], 93 % of control.

Consider `CCCC/C=C\C=C\CCCC`, for which the T/C by setting is: under setting [12], 95 % of control; under setting [13], 103 % of control; under setting [14], 97 % of control.

Turning to `Cc1cc(C)nc(NCC(=O)O)n1`, the T/C runs as follows: (dose: 50.0 mg/kg/injection, schedule: Q04DX002 (ip), vehicle: saline) 95 % of control; (dose: 100.0 mg/kg/injection, schedule: Q04DX002 (ip), vehicle: saline) 95 % of control; (dose: 200.0 mg/kg/injection, schedule: Q04DX002 (ip), vehicle: saline) 95 % of control.

Regarding `CC(C)(C)NC(=O)NCc1ccccc1Cl`, the T/C runs as follows: under setting [2], 96 % of control; under setting [3], 96 % of control; (dose: 400.0 mg/kg/injection, schedule: Q04DX002 (ip), vehicle: Klucel (hydroxypropylcellulose) (HPC)) 100 % of control.

Consider `Ic1ccccc1C[N+]12CN3CN(CN(C3)C1)C2`, for which the T/C (dose: 15.0 mg/kg/injection, schedule: Q01DX015 (ip), vehicle: carboxymethylcellulose (CMC)) was 101 % of control; the T/C (dose: 30.0 mg/kg/injection, schedule: Q01DX015 (ip), vehicle: carboxymethylcellulose (CMC)) is 92 % of control; the T/C (dose: 60.0 mg/kg/injection, schedule: Q01DX015 (ip), vehicle: carboxymethylcellulose (CMC)) is 92 % of control; the T/C (dose: 100.0 mg/kg/injection, schedule: Q01DX001 (ip), vehicle: acetone) is 101 % of control; the T/C (dose: 100.0 mg/kg/injection, schedule: Q01DX009 (ip), vehicle: acetone) was 96 % of control; the T/C under setting [15] is 100 % of control. The T/C is, setting by setting: (dose: 120.0 mg/kg/injection, schedule: Q01DX015 (ip), vehicle: carboxymethylcellulose (CMC)) 103 % of control; (dose: 200.0 mg/kg/injection, schedule: Q01DX001 (ip), vehicle: acetone) 101 % of control; (dose: 200.0 mg/kg/injection, schedule: Q01DX009 (ip), vehicle: acetone) 94 % of control; under setting [16], 100 % of control; (dose: 400.0 mg/kg/injection, schedule: Q01DX001 (ip), vehicle: acetone) 94 % of control; under setting [17], 93 % of control.

As to `O=C1C(C(Cl)c2ccccc2)SC(c2ccccc2)N1c1ccccc1` (centres undefined), the T/C under setting [8] was 95 % of control; the T/C under setting [9] was 102 % of control; the T/C under setting [10] was 95 % of control; the T/C under setting [11] is 89 % of control; the T/C under setting [20] is 95 % of control; the T/C under setting [19] was 96 % of control.

Regarding `O=C1OC(c2cccc(Cl)c2)=N/C1=C\c1ccccc1O`, the T/C is, setting by setting: under setting [8], 94 % of control; under setting [20], 94 % of control.

`CCn1c(N)c(N=O)c(=O)[nH]c1=O`: the T/C reads like this: (dose: 100.0 mg/kg/injection, schedule: Q01DX009 (ip), vehicle: gum acacia) 95 % of control; (dose: 200.0 mg/kg/injection, schedule: Q01DX009 (ip), vehicle: gum acacia) 99 % of control.

Take `N#C/C(=C\c1c[nH]c2ccccc12)c1ccc([N+](=O)[O-])cc1`: the T/C reads like this: (dose: 100.0 mg/kg/injection, schedule: Q04DX002 (ip), vehicle: gum acacia) 95 % of control; (dose: 200.0 mg/kg/injection, schedule: Q04DX002 (ip), vehicle: gum acacia) 101 % of control.
